# In patent US12390485B2, “Compounds and methods for suppressing an immune response to substances containing polyethylene glycol” (aAb Therapeutics, LLC, priority 2020, dated 2025):
# What was measured:
# [1] = tested on: anti-PEG antibody response; test: Treatment model: mice with existing anti-PEG antibody response from PEG-KLH (serum ELISA); format: in vivo, BALB/c mice; conditions: PEG alone before and after PEG-KLH boosting (P/P), Day 21 and Day 28; bleed Day 30; serum 1:500; FIG. 6
# From the text: Male BALB/c mice (aged 6-8 weeks) were immunized intraperitoneally (i.p.) with PEG conjugated to KLH (PEG-KLH) using Complete Freund's adjuvant on Day 1 (50 mcg) and boosted with the same conjugate using Incomplete Freund's adjuvant on Day 18 (25 mcg). Pre-immunization blood samples were collected by retroorbital bleeding on Day −5. All other blood draws were collected on the days indicated. For testing, pools of serum from each group (n=5) were generated by mixing equal volumes of serum from each mouse in the group. Treatments were as outlined below.
# (§1) ELISAs were carried out as follows. Plates were coated overnight at 4° C. with 0.5 mcg antigen in 100 uL sodium carbonate coating buffer, then washed twice with PBS and blocked with 300 uL Blocking Buffer (nonfat dry milk-PBS (5% w/v) or 1× fish gel (Rockland immunochemicals)) at room temperature for 1 hr. […] After washing 3× for 5 minutes each with PBS, 100 uL TMBE was added to each well and a kinetic read taken for 5 minutes. Plates were allowed to continue the color development reaction for a total of 30 minutes at which time 100 uL stop solution was added and plates read. […]
# In this treatment scenario, to generate anti-PEG antibodies prior to treatment, mice were first immunized with PEG-KLH conjugate on Day 0 and boosted on Day 22 (FIG. 5). […] Anti-PEG IgG antibodies were measured on Day 30 by ELISA as indicated above (serum diluted 1:500). […]
# [2] = tested on: anti-PEG antibody response; test: Prophylaxis model: anti-PEG antibody response in PEG-naïve mice immunized with PEG-KLH (serum ELISA); format: in vivo, BALB/c mice
# Description: Pre-immunization blood samples were collected by retroorbital bleeding on Day −5. All other blood draws were collected on the days indicated. For testing, pools of serum from each group (n=5) were generated by mixing equal volumes of serum from each mouse in the group. Treatments were as outlined below.
# as §1
# In the present experiment, we first studied the anti-PEG IgM antibody response. […] Anti-PEG IgM antibodies were then measured against PEG-BSA by ELISA from bleeds collected on Day −5 and Day 9 (serum dilution 1:500)(FIG. 2).
# In the present experiment, detection of IgG antibodies on Day 9 is not generally expected as this antibody subclass generally takes two weeks or more to emerge after immunization. […] The anti-PEG IgG response was assessed by ELISA as described above, using a serum dilution of 1:500.
substance,measurement,setting,value
MeO-23PEG-Ethanolamine,anti-PEG IgG antibodies,[1],had no effect on anti-PEG IgG antibodies
same,anti-PEG IgG antibodies (ELISA),"[2]; treatment Day 0 and Day 7, additional PEG-KLH immunization Day 22, bleed Day 26, serum 1:500, FIG. 4",readily detected
same,anti-PEG IgM antibodies (ELISA against PEG-BSA),"[2]; treatment i.p. Day 0 and Day 7, PEG-KLH Day 1, bleed Day 9, pooled serum 1:500, FIG. 3",readily detected
